Source: paper PMC12016938, “A small molecule PKCε inhibitor reduces hyperalgesia induced by paclitaxel or opioid withdrawal” (JCI Insight, 2025)
“And” between values parts separate entries of the source, which are not always exact repeats. Equal entries are not always repeated. Structures can show the parent of a compound that is named as a salt.

System: self-administration (addictive potential)
Experiment: I.v. self-administration of CP612, between-session progressive ratio and demand curve
Experimental: We tested the addictive potential of CP612 by examining the extent to which rats are willing to work to obtain CP612. Rats were initially trained to self-administer either saline, morphine (500 μg/kg/i.v. infusion), or 1 of 3 different doses of CP612 (75, 150, or 300 μg/kg/i.v. infusion) for 4 days at fixed ratio 1 (FR1, where 1 nose poke delivers 1 infusion).
During the second phase, the ratio to obtain an infusion increased geometrically every other day (FR1, FR3, FR6, FR12, FR24, FR48, and FR96).
Data (number of self-infusions) were also fitted in an economic-demand curve, which provides an estimate of the motivation to obtain drugs and their addictive potential ([20]). We measured elasticity (α), which is the relative change in consumption as a function of price (i.e., ratio of nose pokes required to obtain an infusion). Behavior is considered “inelastic” when consumption is insensitive to price and “elastic” when consumption is sensitive to price. We also measured Pmax, which is the price at which intake switches from inelastic to elastic. […] (Figure 8B).
Rats not immediately anesthetized were eliminated from the study.
Following this initial acquisition phase at FR1, the ratio to obtain the drug was increased geometrically every other day: FR3 (3 nose pokes are required to obtain 1 infusion of morphine), FR6, FR12, FR24, FR48, and FR96. This allows for analysis of drug consumption as a function of “price” using demand curves for behavioral economics, which can estimate the motivation to obtain drugs and their “addictive potential” ([20]). For this, data from each rat were fitted to the equation log Q = log Q0 + k (e ^–α(Q0 ^C) – 1), where Q represents consumption (number of self-infusions), and Q0 represents the level of consumption at the lowest price. C represents price for the drug (i.e., the ratio), and k is set to a constant accounting for the estimated range of consumption in logarithmic units (k = 4 in these studies). The symbol α is the relative change in consumption across changes in price (ratio). Behavior is considered “inelastic” when consumption is insensitive to price (i.e., the curve is flat, and consumption is maintained despite increases in price), and it switches to “elastic” when consumption is sensitive to price (i.e., when the curve is steep and consumption declines with increases in price). […] We also compared groups for their average intake in the consumption-price curves by measuring α (elasticity) and Pmax.

[1] = individual rat values, drug self-administered

CN1CC[C@]23c4c5ccc(O)c4O[C@H]2[C@@H](O)C=C[C@H]3[C@H]1C5 [Morphine, Morphine sulfate, reference compound]
Responding in the active hole when the ratio to obtain an infusion increased (FR1 to FR96, CP612 75, 150, 300 or morphine 500 μg/kg/i.v. infusion): increased responding | Number of self-infusions when the ratio to obtain an infusion increased (FR1 to FR96, compared with saline): did not significantly decrease | D1 AH (FR1) [1]: 7 and 9 and 15 | D1 AH (FR3) [1]: 23 and 18 and 20 | D1 AH (FR6) [1]: 51 and 24 and 47 | D1 AH (FR12) [1]: 97 and 70 and 72 | D1 AH (FR24) [1]: 143 and 139 and 168 | D1 AH (FR48) [1]: 113 and 164 and 127 | D1 AH (FR96) [1]: 127 and 137 and 133 | D1 IH (FR1) [1]: 1 and 12 and 2 | D1 IH (FR3) [1]: 9 and 12 and 5 | D1 IH (FR6) [1]: 0 and 9 and 7 | D1 IH (FR12) [1]: 2 and 15 and 20 | D1 IH (FR24) [1]: 7 and 9 and 20 | D1 IH (FR48) [1]: 13 and 28 | D1 IH (FR96) [1]: 7 and 33 | D1 Inf (FR1) [1]: 6 and 7 and 10 | D1 Inf (FR3) [1]: 7 and 5 and 6 | D1 Inf (FR6) [1]: 8 and 4 and 7 | D1 Inf (FR12) [1]: 8 and 5 and 6 | D1 Inf (FR24) [1]: 5 and 6 | D1 Inf (FR48) [1]: 2 and 3 | D1 Inf (FR96) [1]: 1 | D1 Latency (FR1) [1]: 1.5 and 1.4 and 2.3 | D1 Latency (FR3) [1]: 0.38 and 0.7 and 0.267 | D1 Latency (FR6) [1]: 0.2 and 0.317 and 0.6 | D1 Latency (FR12) [1]: 1.6 and 0.6 and 1.7 | D1 Latency (FR24) [1]: 1.3 and 0.5 and 0.26 | D1 Latency (FR48) [1]: 0.367 and 0.26 and 1.1 | D1 Latency (FR96) [1]: 1.0 and 1.1 and 0.7 | D2 AH (FR1) [1]: 5 and 7 and 12 | D2 AH (FR3) [1]: 25 and 23 and 26 | D2 AH (FR6) [1]: 59 and 60 and 46 | D2 AH (FR12) [1]: 118 and 94 and 104 | D2 AH (FR24) [1]: 143 and 151 and 176 | D2 AH (FR48) [1]: 163 and 134 and 158 | D2 AH (FR96) [1]: 106 and 145 and 179 | D2 IH (FR1) [1]: 8 and 6 and 2 | D2 IH (FR3) [1]: 1 and 11 and 13 | D2 IH (FR6) [1]: 9 and 8 | D2 IH (FR12) [1]: 8 and 7 | D2 IH (FR24) [1]: 11 and 7 and 20 | D2 IH (FR48) [1]: 19 and 11 | D2 IH (FR96) [1]: 6 and 16 | D2 Inf (FR1) [1]: 5 and 6 and 9 | D2 Inf (FR3) [1]: 8 and 6 | D2 Inf (FR6) [1]: 8 and 9 and 7 | D2 Inf (FR12) [1]: 9 and 6 and 7 | D2 Inf (FR24) [1]: 5 and 6 and 7 | D2 Inf (FR48) [1]: 3 and 2 | D2 Inf (FR96) [1]: 1 | D2 Latency (FR1) [1]: 0.458 and 1.3 and 0.3 | D2 Latency (FR3) [1]: 0.25 and 0.473 and 0.4 | D2 Latency (FR6) [1]: 3.2 and 1.4 and 0.647 | D2 Latency (FR12) [1]: 0.127 and 0.277 and 0.753 | D2 Latency (FR24) [1]: 3.0 and 1.6 | D2 Latency (FR48) [1]: 0.218 and 0.3 and 0.9 | D2 Latency (FR96) [1]: 0.5 and 0.28 and 1.1 | D3 AH (FR1) [1]: 8 and 11 and 13 | D3 IH (FR1) [1]: 3 and 5 and 0 | D3 Inf (FR1) [1]: 6 and 7 and 9 | D3 Latency (FR1) [1]: 0.6 and 2.1 and 0.053 | D4 AH (FR1) [1]: 10 and 12 and 11 | D4 IH (FR1) [1]: 0 and 4 and 2 | D4 Inf (FR1) [1]: 7 and 9 | D4 Latency (FR1) [1]: 0.13 and 0.6 and 0.632 | last AH (FR1) [1]: 7 and 8 and 14 | last IH (FR1) [1]: 3 and 2 and 4 | last Inf (FR1) [1]: 6 | last Latency (FR1) [1]: 0.34 and 0.452 and 0.9 | last-1 AH (FR1) [1]: 10 and 12 and 11 | last-1 IH (FR1) [1]: 0 and 4 and 2 | last-1 Inf (FR1) [1]: 7 and 9 | last-1 Latency (FR1) [1]: 0.13 and 0.6 and 0.632 | last-2 AH (FR1) [1]: 8 and 11 and 13 | last-2 IH (FR1) [1]: 3 and 5 and 0 | last-2 Inf (FR1) [1]: 6 and 7 and 9 | last-2 Latency (FR1) [1]: 0.6 and 2.1 and 0.053 | last-3 AH (FR1) [1]: 5 and 7 and 12 | last-3 IH (FR1) [1]: 8 and 6 and 2 | last-3 Inf (FR1) [1]: 5 and 6 and 9 | last-3 Latency (FR1) [1]: 0.458 and 1.3 and 0.3 | Pmax (price at which intake switches from inelastic to elastic) (morphine 500 μg/kg/i.v. infusion): 50.1 | AVG AH (FR3) (morphine, individual rats): 43.5 and 29.0 and 31.0 and 18.0 and 18.5 and 24.0 | AVG AH (FR6) (morphine, individual rats): 43.5 and 53.5 and 45.5 and 38.5 and 31.0 and 21.0 | AVG AH (FR12) (morphine, individual rats): 62.0 and 88.0 and 64.5 and 104.0 and 39.0 and 41.5 | AVG AH (FR24) (morphine, individual rats): 164.5 and 149.5 and 79.5 and 187.0 and 122.5 and 61.0 | AVG AH (FR48) (morphine, individual rats): 232.5 and 252.5 and 73.5 and 255.0 and 135.0 and 63.0 | AVG AH (FR96) (morphine, individual rats): 203.5 and 351.0 and 57.0 and 198.0 and 210.5 and 36.0 | AVG IH (FR1_D1 to D4) (morphine, individual rats): 10.3 and 8.8 and 13.3 and 5.3 and 14.8 and 7.0 | AVG IH (FR1_Last 2 FR1 days) (morphine, individual rats): 3.5 and 3.0 and 5.5 and 5.0 and 6.5 and 9.0 | AVG IH (FR1_Last 4 FR1 days) (morphine, individual rats): 10.8 and 3.5 and 9.5 and 4.8 and 11.0 and 7.5 | AVG IH (FR3) (morphine, individual rats): 10.0 and 7.5 and 8.5 and 8.0 and 15.0 and 9.0 | AVG IH (FR6) (morphine, individual rats): 6.5 and 7.0 and 9.0 and 7.5 and 13.5 and 11.0 | AVG IH (FR12) (morphine, individual rats): 11.0 and 9.5 and 19.0 and 5.0 and 6.0 and 4.0 | AVG IH (FR24) (morphine, individual rats): 11.0 and 10.0 and 15.0 and 7.5 and 8.5 | AVG IH (FR48) (morphine, individual rats): 8.5 and 13.5 and 12.0 and 18.0 and 9.5 and 13.0 | AVG IH (FR96) (morphine, individual rats): 8.5 and 18.5 and 13.5 and 14.5 and 26.0 | AVG Inf (FR1_D1 to D4) (morphine, individual rats): 10.8 and 9.3 and 8.0 and 12.0 and 9.5 and 10.0 | AVG Inf (FR1_Last 2 FR1 days) (morphine, individual rats): 14.0 and 10.0 and 11.0 and 9.0 and 7.5 | AVG Inf (FR1_Last 4 FR1 days) (morphine, individual rats): 12.0 and 10.0 and 9.0 and 13.3 and 9.5 and 9.3 | AVG Inf (FR3) (morphine, individual rats): 10.5 and 8.5 and 9.5 and 5.0 and 4.5 | AVG Inf (FR6) (morphine, individual rats): 7.0 and 7.5 and 6.0 and 4.0 and 3.0 | AVG Inf (FR12) (morphine, individual rats): 5.0 and 6.0 and 4.5 and 8.0 and 3.0 | AVG Inf (FR24) (morphine, individual rats): 6.0 and 5.5 and 3.0 and 7.5 and 4.0 and 2.0 | AVG Inf (FR48) (morphine, individual rats): 4.5 and 5.0 and 1.0 and 2.0 | AVG Inf (FR96) (morphine, individual rats): 1.5 and 3.0 and 0.0 | AVG Latency (FR1_D1 to D4) (morphine, individual rats): 2.4 and 4.0 and 9.8 and 1.3 and 2.0 and 1.1 | AVG Latency (FR1_Last 2 FR1 days) (morphine, individual rats): 0.271 and 0.4 and 3.0 and 0.18 and 0.74 and 1.1 | AVG Latency (FR1_Last 4 FR1 days) (morphine, individual rats): 0.3 and 0.277 and 3.8 and 0.6 and 1.1
